We go through one compound from article PMC10341893, “Motifs in Natural Products as Useful Scaffolds to Obtain Novel Benzo[d]imidazole-Based Cannabinoid Type 2 (CB2) Receptor Agonists” (International Journal of Molecular Sciences, 2023).

Experiment [1] addresses T1, hCB2 receptor (Homo sapiens, UniProt P34972). In words: cAMP accumulation assay (forskolin-stimulated, CHO cells expressing hCB2). The format is cell-based. The method, then: Compounds were further characterized through in vitro functional assays by measuring the variation in forskolin-induced cAMP accumulation (Eurofins Cerep services). The tested compounds diminished the accumulation of cyclic AMP, indicating activity as agonists (Figure 3).
In vitro pharmacology assay for human CB2 agonist effect in CHO cells was performed by Eurofins Cerep (Celle-Lévescault, France). Five compounds were tested at several concentrations for EC50 determination. […] CHO cells stably expressing hCB2 receptor were used to determine agonist effect of compounds, based on the measurement of cAMP level. Assay protocol is adapted from Felder et al..

In experiment [2] the target is T2, human recombinant CB1R (Homo sapiens, UniProt P21554).
T2 construct: expressed in transfected cells; host or cells: HEK cells
T2 sequence (P21554 whole entry): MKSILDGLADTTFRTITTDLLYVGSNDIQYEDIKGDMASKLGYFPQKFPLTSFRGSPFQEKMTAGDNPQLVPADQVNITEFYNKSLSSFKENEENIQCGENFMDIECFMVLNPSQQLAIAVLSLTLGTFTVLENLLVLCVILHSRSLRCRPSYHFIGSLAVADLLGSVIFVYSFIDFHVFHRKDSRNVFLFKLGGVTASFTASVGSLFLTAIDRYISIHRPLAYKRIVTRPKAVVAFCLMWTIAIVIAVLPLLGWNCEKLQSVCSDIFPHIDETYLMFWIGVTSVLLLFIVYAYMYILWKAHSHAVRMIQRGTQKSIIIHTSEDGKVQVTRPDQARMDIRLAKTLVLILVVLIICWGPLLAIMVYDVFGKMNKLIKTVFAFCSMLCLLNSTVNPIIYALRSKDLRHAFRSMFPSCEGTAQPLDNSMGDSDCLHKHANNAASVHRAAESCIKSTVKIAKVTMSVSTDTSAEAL
In words: CB1 receptor binding assay ([3H]-CP-55,940 displacement, HEK cell membranes). The following applies: [3H]-CP-55,940 displacement; means ± SD of 3 independent experiments in duplicate; read-out: Ki CB1. As to the method:
(§1) To assess the compound selectivity between CB1 and CB2 receptors, binding constants were determined through a radioligand displacement assay by testing concentration–response curves for compounds 5, 6, 16, 19, and 22. As shown in Figure 4 and summarized in Table 4, three of the tested compounds (5, 19, and 22) presented moderate binding affinity in a low micromolar range to both CB1 and CB2 receptors.
(§2) CB1 and CB2 receptor binding assays were performed exactly as previously described. […] Displacement curves were performed by incubating [^3H]-CP-55 940 (90 min, 30 °C) with increasing concentrations of compounds (10 nM−10 μM). Ki values were calculated by applying the Cheng−Prusoff equation to the IC50 values (obtained by GraphPad, Prism Software 9.5) for the displacement of the bound radioligand by compounds.

The subject of experiment [3] is HEK-293 cells. In words: Neutral red uptake assay, HEK-293. The format is cell-based. The conditions noted are these: Homo sapiens, HEK293. As to the method: (§3) Compound 6 was tested through a neutral red uptake assay, and cell viability was measured. Neutral red consists of a cationic dye that accumulates in lysosomes. Uptake of neutral red depends on a viable cell’s capacity to maintain acidic pH in the interior of lysosomes.
(§4) MCF-7 and HEK-293 cell lines were maintained at 37 °C in a humidified atmosphere containing 5% CO2. MCF-7 was grown in Roswell Park Memorial Institute (RPMI) 1640 and HEK-293 was grown in Dulbecco’s modified Eagle medium and Ham’s F-12 medium (DMEM/F12). All media was supplemented with 10% fetal bovine serum, penicillin (100 U/mL), streptomycin ([…]), and non-essential amino acids MEM 1×.
(§5) Cells were seeded in 100 μL of media at a density of 10^4 cells/well in 96-well microtiter plates. Solutions of compounds were previously prepared in DMSO, and 1 μL of the corresponding solution was added to each well. The final volume of each well was adjusted to 200 μL. After 72 h of incubation, culture media were removed, and 100 μL of 10 μg/mL neutral red solution prepared in culture media was added to each well and incubated for 2 h at 37 °C in a humidified atmosphere containing 5% CO2. […] The plate was placed for 15 min in a shaker, and fluorescence was measured using Cytation 5 apparatus (Biotek, Winooski, VT, USA) at 530/645 nm excitation/emission wavelengths.

For experiment [4], the system named is MCF-7 cells. In words: Neutral red uptake assay, MCF-7. The conditions noted are these: Homo sapiens, MCF7, 72 h incubation, triplicate, read-out: IC50 Viability. The format is cell-based. As to the method:
as §3, §4, §5

Experiment [5] concerns the target T1, hCB2 receptor. In words: Single-dose radioligand displacement assay ([3H]WIN55212-2). In kind it is binding. The arrangement: host or cells: CHO cells. The following applies: membranes from recombinant CHO cells expressing human CB2, duplicate. As to the method:
To assess ligand binding to CB2 receptors, radioligand displacement assay at a single dose (10 μM) was performed in membranes obtained from recombinant CHO cells expressing human CB2 receptors (Eurofins Cerep SA, France). Out of 26 compounds, more than 50% of the molecules presented >50% displacement, while 20% of the compounds (5, 6, 16, 19, 22) presented >80% displacement of radioligand binding at a 10 μM dose. Compounds 5, 6, 16, 19, and 22 were further tested for CB2 receptor activation (agonist activity, see below) and CB2/CB1 selectivity.
All membrane preparations for these studies were generated at Cerep Inc. according to standard protocols. Duplicate determinations were performed for each test compound. Compounds were dissolved in DMSO to generate a stock solution. Radioligand binding methods were adapted from Munro et al..

Experiment [6] has as its target T1, hCB2 receptor. In words: CB2 receptor binding assay ([3H]-CP-55,940 displacement, HEK cell membranes). The arrangement: expressed in transfected cells; host or cells: HEK cells. The following applies: [3H]-CP-55,940 displacement; means ± SD of 3 independent experiments in duplicate; read-out: Ki CB2. The method, then: as §1, §2

Where two headings read alike, the source gives them in different places.

T1 sequence (P34972 whole entry): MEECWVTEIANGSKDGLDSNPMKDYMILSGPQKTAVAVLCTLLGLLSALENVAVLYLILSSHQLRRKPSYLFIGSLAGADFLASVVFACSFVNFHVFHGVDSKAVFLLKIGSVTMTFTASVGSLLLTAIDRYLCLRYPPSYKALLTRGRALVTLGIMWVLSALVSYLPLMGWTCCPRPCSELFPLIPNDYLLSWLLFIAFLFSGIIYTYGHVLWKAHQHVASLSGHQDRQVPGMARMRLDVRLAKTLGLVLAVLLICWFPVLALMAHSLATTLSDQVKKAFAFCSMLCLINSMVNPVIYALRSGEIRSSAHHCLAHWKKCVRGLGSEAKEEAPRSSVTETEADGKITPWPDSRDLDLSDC

Consider `CCn1c(OC2CC(C)CCC2C(C)C)nc2ccccc21` (stereo not drawn) [Compound 6, 1-ethyl-2-((2-isopropyl-5-methylcyclohexyl)oxy)-1H-benzo[d]imidazole], for which the EC50 in experiment [1] (recombinant CHO cells expressing hCB2, duplicate, read-out: EC50, inhibition of forskolin-stimulated cAMP accumulation) was found to be 0.00336 µM. Besides, the “agonist activity at CB2 (cAMP accumulation)” value in experiment [1] (recombinant cells expressing CB2 receptors) is recorded as “agonist activity was confirmed”. The inhibition constant Ki is over 10 µM in experiment [2] and 0.44 ± 0.1 µM in experiment [6]. Besides, the IC50 in experiment [3] (HEK-293, 72 h incubation, triplicate, read-out: IC50 Viability) is 30 µM; in experiment [3] (range over HEK-293 and MCF-7 cells, read-out: IC50 of toxicity), 30 to 38 µM; in experiment [4], 38 µM. The “Inhibition (%) of [3H]WIN55212-2 specific binding” value in experiment [5] (10 µM single dose) stood at 89%. In addition, the inhibition at 10 µM in experiment [5] (read-out: Inhibition (%) of [3H]WIN55212-2 specific binding, 10 µM single dose) is over 80%.
